Data set [1] concerns the target T1, Melanin-concentrating hormone receptor 1 (Homo sapiens, UniProt Q99705). Nature of the data set: Antagonist activity at human MCH1R expressed in CHO cells assessed as inhibition of MCH-induced response at 5 uM. The class given is functional, cell-based.
Data set [2] concerns the target T1, Melanin-concentrating hormone receptor 1. Nature of the data set: Antagonist activity at human MCH1R expressed in CHO cells assessed as inhibition of MCH-induced response. The format is functional, cell-based.
Data set [3] deals with T2, Dipeptidyl peptidase 4 (Homo sapiens, UniProt P27487). Kind of data set: Inhibition of human recombinant DPP4 using H-Gly-Pro-7-amino-4-methylcoumarin as substrate assessed as inhibition of 7-amino-4-methylcoumarin formation after 30 mins by fluorimetry.
T2 sequence (P27487 whole entry): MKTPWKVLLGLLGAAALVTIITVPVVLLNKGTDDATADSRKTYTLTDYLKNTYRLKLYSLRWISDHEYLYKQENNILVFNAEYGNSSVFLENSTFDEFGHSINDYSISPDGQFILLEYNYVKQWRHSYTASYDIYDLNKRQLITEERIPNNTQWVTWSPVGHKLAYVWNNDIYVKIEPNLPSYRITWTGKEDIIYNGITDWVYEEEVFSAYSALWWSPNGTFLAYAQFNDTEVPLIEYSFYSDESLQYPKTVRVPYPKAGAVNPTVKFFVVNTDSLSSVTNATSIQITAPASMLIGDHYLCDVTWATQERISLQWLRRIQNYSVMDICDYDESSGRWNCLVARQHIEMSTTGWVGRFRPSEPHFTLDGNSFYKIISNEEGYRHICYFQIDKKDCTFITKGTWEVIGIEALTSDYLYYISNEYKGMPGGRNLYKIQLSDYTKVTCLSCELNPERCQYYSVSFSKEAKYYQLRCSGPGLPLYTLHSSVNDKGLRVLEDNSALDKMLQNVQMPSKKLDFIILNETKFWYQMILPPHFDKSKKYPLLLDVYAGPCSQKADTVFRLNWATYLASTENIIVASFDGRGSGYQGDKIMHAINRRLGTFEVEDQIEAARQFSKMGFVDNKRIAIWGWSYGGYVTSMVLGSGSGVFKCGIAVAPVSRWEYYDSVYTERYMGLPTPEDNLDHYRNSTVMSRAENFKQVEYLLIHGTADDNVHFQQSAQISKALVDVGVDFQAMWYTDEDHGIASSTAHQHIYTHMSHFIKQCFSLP
Data set [4] addresses T2, Dipeptidyl peptidase 4. Kind of data set: Inhibition of DPP4.
Data set [5] can be described thus: Lipophilicity, log D of the compound at pH 7.4. The class given is physicochemical. As to conditions: buffer.
Data set [6] has as its target Voltage-gated inwardly rectifying potassium channel KCNH2 (Homo sapiens, UniProt Q12809).
The target in a further data set is Dipeptidyl peptidase 8 (Homo sapiens, UniProt Q6V1X1). Kind of data set: Inhibition of DPP8.
Chain of Dipeptidyl peptidase 8 (Q6V1X1 whole entry): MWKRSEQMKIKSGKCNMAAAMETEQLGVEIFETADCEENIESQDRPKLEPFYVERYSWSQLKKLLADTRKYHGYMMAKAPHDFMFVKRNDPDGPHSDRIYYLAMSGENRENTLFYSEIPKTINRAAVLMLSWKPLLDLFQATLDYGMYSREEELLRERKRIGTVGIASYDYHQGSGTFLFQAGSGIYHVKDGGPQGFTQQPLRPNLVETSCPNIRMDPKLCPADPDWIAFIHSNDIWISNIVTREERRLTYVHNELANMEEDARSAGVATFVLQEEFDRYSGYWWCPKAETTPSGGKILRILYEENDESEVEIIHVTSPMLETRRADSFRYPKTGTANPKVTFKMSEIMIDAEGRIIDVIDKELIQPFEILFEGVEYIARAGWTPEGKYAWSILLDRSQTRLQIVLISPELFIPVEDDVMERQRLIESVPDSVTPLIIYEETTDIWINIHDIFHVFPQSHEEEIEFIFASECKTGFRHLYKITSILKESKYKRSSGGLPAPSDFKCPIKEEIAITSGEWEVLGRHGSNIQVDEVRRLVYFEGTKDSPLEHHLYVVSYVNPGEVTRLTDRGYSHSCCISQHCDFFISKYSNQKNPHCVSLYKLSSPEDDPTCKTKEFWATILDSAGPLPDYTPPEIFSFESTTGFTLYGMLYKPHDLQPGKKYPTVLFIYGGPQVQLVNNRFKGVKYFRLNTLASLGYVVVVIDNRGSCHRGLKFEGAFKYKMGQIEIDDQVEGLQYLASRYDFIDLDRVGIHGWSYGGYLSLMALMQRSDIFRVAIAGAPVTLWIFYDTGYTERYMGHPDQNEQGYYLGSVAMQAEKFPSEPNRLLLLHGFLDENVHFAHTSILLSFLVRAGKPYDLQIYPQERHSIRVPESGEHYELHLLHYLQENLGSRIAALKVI
The target in another data set is Dipeptidyl peptidase 9 (Homo sapiens, UniProt Q86TI2). Nature of the data set: Inhibition of DPP9.
Chain of Dipeptidyl peptidase 9 (Q86TI2 whole entry): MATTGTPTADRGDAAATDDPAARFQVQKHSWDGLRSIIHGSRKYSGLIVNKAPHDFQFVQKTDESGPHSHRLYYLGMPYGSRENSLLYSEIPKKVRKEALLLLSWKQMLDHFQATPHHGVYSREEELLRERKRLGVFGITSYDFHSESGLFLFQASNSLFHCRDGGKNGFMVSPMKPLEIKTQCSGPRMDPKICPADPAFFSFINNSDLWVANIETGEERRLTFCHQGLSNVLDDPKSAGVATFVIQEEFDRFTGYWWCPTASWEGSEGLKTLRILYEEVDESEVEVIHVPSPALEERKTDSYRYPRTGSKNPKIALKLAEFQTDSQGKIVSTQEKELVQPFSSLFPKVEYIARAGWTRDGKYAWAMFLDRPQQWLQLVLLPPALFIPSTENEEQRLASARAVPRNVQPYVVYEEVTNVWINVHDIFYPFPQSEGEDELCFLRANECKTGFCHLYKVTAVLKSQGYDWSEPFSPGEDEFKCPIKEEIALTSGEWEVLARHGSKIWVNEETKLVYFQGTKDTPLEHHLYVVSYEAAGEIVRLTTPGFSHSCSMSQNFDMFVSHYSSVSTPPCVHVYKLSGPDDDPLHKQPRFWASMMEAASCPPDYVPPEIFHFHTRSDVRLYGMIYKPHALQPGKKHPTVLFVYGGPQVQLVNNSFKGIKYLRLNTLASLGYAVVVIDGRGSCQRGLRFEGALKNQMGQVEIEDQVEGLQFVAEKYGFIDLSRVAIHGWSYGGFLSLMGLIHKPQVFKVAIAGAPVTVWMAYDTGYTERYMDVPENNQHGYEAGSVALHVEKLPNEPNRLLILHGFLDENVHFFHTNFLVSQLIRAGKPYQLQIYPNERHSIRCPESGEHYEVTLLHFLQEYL
For data set [7], the target named is T1, Melanin-concentrating hormone receptor 1. Kind of data set: Antagonist activity at human MCH1R expressed in forskolin-stimulated CHO cells assessed as inhibition of MCH-induced cAMP accumulation after 90 mins. The format is functional, cell-based. (In general: Changes in cAMP serve as a functional read-out for many G protein-coupled receptors.)

By inhibition is commonly meant the relative decrease from the control value, in per cent. The IC50 is the concentration at which inhibition is half-maximal. Broadly, the Ki is the dissociation constant of the complex between target and ligand, obtained from inhibition or displacement. In general, logD refers to the decadic logarithm of the distribution of all forms, ionised or not, between an organic phase and buffer at a given pH. A higher logD goes with higher lipophilicity.

T1 sequence (Q99705 whole entry): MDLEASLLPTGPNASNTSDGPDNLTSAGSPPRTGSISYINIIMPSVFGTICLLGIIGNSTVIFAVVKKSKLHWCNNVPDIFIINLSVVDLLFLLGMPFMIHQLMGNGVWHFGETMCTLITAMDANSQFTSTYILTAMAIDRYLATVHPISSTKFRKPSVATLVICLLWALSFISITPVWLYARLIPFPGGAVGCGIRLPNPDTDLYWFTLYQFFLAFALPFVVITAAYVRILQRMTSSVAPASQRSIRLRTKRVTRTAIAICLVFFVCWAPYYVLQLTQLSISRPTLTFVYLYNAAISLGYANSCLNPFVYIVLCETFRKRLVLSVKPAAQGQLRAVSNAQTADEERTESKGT
Chain of Voltage-gated inwardly rectifying potassium channel KCNH2 (Q12809 whole entry): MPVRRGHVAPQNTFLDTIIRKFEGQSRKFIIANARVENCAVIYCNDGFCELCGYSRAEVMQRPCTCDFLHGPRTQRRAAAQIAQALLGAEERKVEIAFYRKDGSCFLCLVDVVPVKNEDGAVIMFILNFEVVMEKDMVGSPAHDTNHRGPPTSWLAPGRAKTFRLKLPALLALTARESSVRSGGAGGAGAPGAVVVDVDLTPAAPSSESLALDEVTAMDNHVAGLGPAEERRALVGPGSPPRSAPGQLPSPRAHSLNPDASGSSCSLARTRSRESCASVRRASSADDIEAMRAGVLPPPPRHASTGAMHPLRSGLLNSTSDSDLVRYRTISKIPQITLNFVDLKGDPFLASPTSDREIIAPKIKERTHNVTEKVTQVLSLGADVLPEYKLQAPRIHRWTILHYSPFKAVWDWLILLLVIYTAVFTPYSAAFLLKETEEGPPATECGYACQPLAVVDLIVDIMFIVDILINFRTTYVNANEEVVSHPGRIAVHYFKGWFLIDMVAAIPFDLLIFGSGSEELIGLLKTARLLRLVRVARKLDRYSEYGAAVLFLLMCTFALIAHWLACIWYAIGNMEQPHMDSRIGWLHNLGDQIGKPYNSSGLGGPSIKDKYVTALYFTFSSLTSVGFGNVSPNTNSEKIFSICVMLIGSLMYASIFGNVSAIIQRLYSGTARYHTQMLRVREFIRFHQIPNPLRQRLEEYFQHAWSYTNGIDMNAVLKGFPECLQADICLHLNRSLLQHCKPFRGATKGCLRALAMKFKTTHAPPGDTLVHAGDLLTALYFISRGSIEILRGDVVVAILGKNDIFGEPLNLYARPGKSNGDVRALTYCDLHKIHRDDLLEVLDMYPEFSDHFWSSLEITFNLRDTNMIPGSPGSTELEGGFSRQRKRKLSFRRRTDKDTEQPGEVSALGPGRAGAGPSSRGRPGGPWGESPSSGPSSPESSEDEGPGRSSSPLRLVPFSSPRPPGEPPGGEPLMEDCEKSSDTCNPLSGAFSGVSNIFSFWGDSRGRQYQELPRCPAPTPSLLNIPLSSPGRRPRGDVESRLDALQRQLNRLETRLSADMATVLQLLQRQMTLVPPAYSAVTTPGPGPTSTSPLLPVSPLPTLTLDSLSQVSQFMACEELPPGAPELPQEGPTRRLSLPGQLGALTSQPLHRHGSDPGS

As for `CCCCOc1ccc2c(c1)CCN(c1ccc(N3C[C@H](c4cc(F)ccc4F)[C@@H](N)C3)nc1)C2=O`, in data set [1], the inhibition turned out to be 44%. Also, the IC50 in data set [2] is 4000 nM.

For `N[C@H]1CN(c2ccc(-n3ccc(OCc4ccccc4)cc3=O)cn2)C[C@@H]1c1cc(F)ccc1F`, in data set [1], the inhibition was 104%. The figures for the IC50 (in data set [2]; on Dipeptidyl peptidase 4 [3]) were 140 nM and 1650 nM, respectively.

Turning to `N[C@H]1CN(c2ccc(CCNC(=O)c3ccc(OCC4CC4)cc3)cn2)C[C@@H]1c1cc(F)ccc1F`, the inhibition in [1] turned out to be 43%. In addition, the 50% inhibitory concentration (IC50) in data set [2] stood at 3800 nM.

With `N[C@H]1CN(c2ccc(-n3ccnc(CCCc4ccccc4)c3=O)cn2)C[C@@H]1c1cc(F)ccc1F`, the inhibition in [1] turned out to be 52%. Besides, in [2], the IC50 was over 3000 nM.

For the compound `N[C@H]1CN(c2cc(-c3ccccc3)ncn2)CC[C@@H]1c1cc(F)c(F)cc1F`, the Ki on Dipeptidyl peptidase 4 [4] was found to be 6 nM.

As for `CC(C)COc1ccc(CC(=O)Nc2ccc(N3C[C@H](c4cc(F)ccc4F)[C@@H](N)C3)nc2)cc1`, the inhibition in data set [1] was 35%.

With `N[C@H]1CN(c2ccc(-n3ccc(OCc4ccccc4)cc3=O)cn2)C[C@@H]1c1cc(F)c(F)cc1F`, the IC50 in data set [2] worked out at 110 nM; at Dipeptidyl peptidase 4 [3] it was 1100 nM; in data set [6], 6100 nM. Also, the logD in data set [5] is 3.4.

Take `N[C@H]1CN(c2ccc(-n3ccc(OCc4ccccc4)cc3=O)cn2)CC[C@@H]1c1cc(F)c(F)cc1F`: the 50% inhibitory concentration (IC50) in data set [2] is 440 nM; at Dipeptidyl peptidase 4 [3], 350 nM; at Dipeptidyl peptidase 8, over 50000 nM; on Dipeptidyl peptidase 9, over 50000 nM.

With `N[C@H]1CN(c2ccc(-n3ccc(-c4ccccc4)cc3=O)cn2)C[C@@H]1c1cc(F)ccc1F`, the inhibition in data set [1] is 39%.

For `N[C@@H]1CCN(c2ccc(-n3ccc(OCc4ccccc4)cc3=O)cn2)C1`, the Ki in [7] came to 6 nM. Moreover, the half-maximal inhibitory concentration (IC50) was 20 nM in data set [2], over 100000 nM on Dipeptidyl peptidase 4 [3], over 100000 nM at Dipeptidyl peptidase 8 and over 100000 nM against Dipeptidyl peptidase 9.

Values taken from ChEMBL document CHEMBL2010730, “An example of designed multiple ligands spanning protein classes: dual MCH-1R antagonists/DPPIV inhibitors” (Bioorg Med Chem Lett, 2012).
